Laboratory results: PubChem BioAssay (NCI)
Values joined by “and” are separate entries in the source; they are usually repeats but may differ in a detail not shown here. Equal values may be shown once.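 These data come from cells grown in 96-well plates and exposed to compound for 48 hours at five concentrations. At the GI50, growth is halved. TGI: total growth inhibition.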

Tests used:
Assay in all cases: DTP human tumour cell line panel, 48 h
SNB-75 CNS = system: SNB-75 CNS
A549 NSCLC = system: A549 NSCLC
MDA-MB-435 = system: MDA-MB-435
HS 578T breast = system: HS 578T breast
NCI-H460 lung = system: NCI-H460 lung
EKVX NSCLC = system: EKVX NSCLC
MDA-MB-231 breast = system: MDA-MB-231 breast
SF-268 CNS = system: SF-268 CNS
KM12 colon = system: KM12 colon
NCI-H226 lung = system: NCI-H226 lung

Row | Structure (SMILES) | GI50 (SNB-75 CNS) | TGI (SNB-75 CNS) | GI50 (A549 NSCLC) | TGI (A549 NSCLC) | GI50 (MDA-MB-435) | TGI (MDA-MB-435) | GI50 (HS 578T breast) | TGI (HS 578T breast) | GI50 (NCI-H460 lung) | TGI (NCI-H460 lung) | GI50 (EKVX NSCLC) | TGI (EKVX NSCLC) | GI50 (MDA-MB-231 breast) | TGI (MDA-MB-231 breast) | GI50 (SF-268 CNS) | TGI (SF-268 CNS) | GI50 (KM12 colon) | TGI (KM12 colon) | GI50 (NCI-H226 lung) | TGI (NCI-H226 lung)
1 | COc1cc2c3c(n(C)c(=O)c2cc1OC)-c1cc2c(cc1/C3=C\CCCCCN)OCO2 | 19.5 µM | > 100 µM | 6.53 µM | > 54.5 µM | 4.09 µM | > 90.6 µM | 11.7 µM | 46.1 µM | 0.13 µM | 21.7 µM | 16.4 µM | 52.2 µM | 2.5 µM | 12.9 µM | 3.92 µM | 47.9 µM | < 0.01 µM | 90.1 µM | 0.601 µM | 13.7 µM
2 | O=C(CCCCCCSc1nc(-c2ccccc2)cc(-c2ccc(Cl)cc2)n1)NO | 1.95 µM | 13.7 µM | 2.16 µM | 6.23 µM | 2.24 µM | 10.9 µM | 2.76 µM | 20.1 µM | 1.22 µM | 10.2 µM | 3.7 µM | 14.3 µM | 2.65 µM | 8.96 µM | 2.44 µM | 6.75 µM | 2.97 µM | 13.5 µM | 2.59 µM | 11.8 µM
3 | COc1ccc(C(=O)/C(Br)=C/C(=O)O)cc1 | – | 145 µM and 186 µM | 25.2 µM | 275 µM and 246 µM | 8.18 µM | 111 µM and 33.5 µM | 43.1 µM and 30.9 µM | 649 µM and 399 µM | 14.4 µM | 300 µM and 72 µM | 28 µM | 181 µM and 115 µM | 53.7 µM | 84 µM and 115 µM | 27.3 µM | 202 µM and 225 µM | – | 48.8 µM and 48 µM | 39.1 µM | 148 µM and 145 µM
4 | O=C(Nc1ccc(N2CCNCC2)cc1)c1[nH]ncc1Nc1ncnc2sc3c(c12)CCC3 | 0.0657 µM | 1.59 µM | 0.136 µM | 0.696 µM | 0.199 µM | 1.77 µM | 0.0994 µM | 2.08 µM | 0.0845 µM | 0.978 µM | 0.194 µM | 1.94 µM | 0.333 µM | 2.04 µM | 0.89 µM | 2.76 µM | 0.219 µM | 1.33 µM | 0.548 µM | 2.56 µM
5 | C=CCn1c2c(c3ccccc3c1=O)C(=O)c1ccccc1-2 | – | > 100 µM | – | > 100 µM | – | > 100 µM | – | > 100 µM | – | > 100 µM | – | > 100 µM | – | > 100 µM | – | > 100 µM | – | > 100 µM | – | > 100 µM
6 | COc1cc(/C(C#N)=C/c2ccc3c(c2OC)OCO3)cc2c1OCO2 | 0.0878 µM | 3.42 µM | 0.0879 µM | > 100 µM | 0.0209 µM | 0.0664 µM | 0.0448 µM | 0.4 µM | 0.0452 µM | 14.2 µM | 0.652 µM | > 100 µM | 0.753 µM | 19.4 µM | 0.0969 µM | 15.8 µM | 0.0424 µM | > 100 µM | 0.603 µM | 36.4 µM
7 | Cc1ncc(CN=Cc2ccc(Cl)cc2)c(N)n1 | – | > 100 µM | – | > 100 µM | – | > 100 µM | – | > 100 µM | – | > 100 µM | – | > 100 µM | – | > 100 µM | – | > 100 µM | – | > 100 µM | – | > 100 µM
8 | CN1CCN(CN2C(=O)C3C4C=CC(C3C2=O)C2C3C(=O)N(CN5CCN(C)CC5)C(=O)C3C42)CC1 (centres undefined) | – | 79.8 µM and 72.9 µM and 92.1 µM | – | 90.5 µM and 57.5 µM and 36.2 µM | – | 31.3 µM | – | > 100 µM | – | 32.3 µM and 37.9 µM and 27.3 µM | > 100 µM | > 100 µM | – | 56.8 µM | – | 50.6 µM and > 62.6 µM and 33.9 µM | – | 41.7 µM and 51.9 µM and > 100 µM | 33.5 µM and > 57.7 µM and 76.8 µM | > 100 µM
9 | O=[N+]([O-])C1C(c2ccccc2)C12c1ccccc1-c1ccccc12 (centres undefined) | 0.612 µM | 14 µM | 1.91 µM | > 100 µM | 0.188 µM | 0.454 µM | 2.28 µM | > 100 µM | 0.589 µM | 10.7 µM | 3.22 µM | > 100 µM | 0.633 µM | 13.5 µM | 2.3 µM | 28 µM | 0.931 µM | 16.6 µM | 2.05 µM | 14.5 µM
10 | COc1cc([C@H]2c3cc4c(cc3O[C@@]3(O)COC(=O)[C@@H]23)OCO4)cc(OC)c1OC | – | > 100 µM | – | > 100 µM | – | > 100 µM | – | > 100 µM | – | > 100 µM | – | > 100 µM | – | > 100 µM | – | > 100 µM | – | > 100 µM | – | > 100 µM
11 | C=C1CC2(OC1=O)C(=O)N(CCCCCCCN1C(=O)C3(CC(=C)C(=O)O3)c3ccccc31)c1ccccc12 (centres undefined) | 6.35 µM | 19.5 µM | 9.16 µM | 24.8 µM | 1.29 µM | 3.92 µM | 5.92 µM | 32.3 µM | 2.9 µM | 12.3 µM | 9.35 µM | 19.3 µM | 1.18 µM | 3.49 µM | 3.97 µM | 12 µM | 3.39 µM | 11.6 µM | 1 µM | 2.76 µM
12 | COc1cc(-c2nn(-c3ccc(NC(=O)c4ccc(Cl)c(Cl)c4)cc3)cc2-c2ccncc2)ccc1Cl | 7.52 µM | > 100 µM | > 100 µM | > 100 µM | 7.14 µM | > 100 µM | 4.13 µM | > 100 µM | 4.17 µM | > 100 µM | 6.82 µM | > 100 µM | 3.66 µM | > 100 µM | > 100 µM | > 100 µM | 5.97 µM | > 100 µM | > 100 µM | > 100 µM
13 | O=C(NNc1nc(Cl)nc(N2CCN(C(c3ccccc3)c3ccccc3)CC2)n1)c1ccccc1 | 1.43 µM | 2.75 µM | 13.5 µM | 30.5 µM | 1.75 µM | 3.21 µM | 1.94 µM | 4.8 µM | 1.93 µM | 3.77 µM | 1.99 µM | 4.29 µM | 1.96 µM | 3.77 µM | 1.73 µM | 3.33 µM | 4.76 µM | > 100 µM | 7.25 µM | 25.8 µM
14 | N=C1C(c2nc(-c3ccc(Br)cc3)cs2)=C(O)CN1Cc1cccnc1 | – | 22.9 µM | 26.6 µM | > 100 µM | 15.5 µM | > 100 µM | – | 2.86 µM | 12.3 µM | > 100 µM | 56.6 µM | > 100 µM | 15.9 µM | 43.5 µM | 31.6 µM | > 100 µM | 18.9 µM | > 100 µM | 11.2 µM | 33.3 µM
15 | CCOC(=O)c1ccc(NC(=O)N2CC(C)OC(C)C2)cc1 (centres undefined) | > 100 µM | > 100 µM | > 100 µM | > 100 µM | > 100 µM | > 100 µM | > 100 µM | > 100 µM | > 100 µM | > 100 µM | > 100 µM | > 100 µM | > 100 µM | > 100 µM | > 100 µM | > 100 µM | > 100 µM | > 100 µM | > 100 µM | > 100 µM
16 | N#Cc1c(Sc2ccccc2N)cccc1Sc1ccccc1N | 2.24 µM | 14.5 µM | 56.9 µM | – | 43.2 µM | – | 22.5 µM | – | 40.3 µM | – | 35.6 µM | – | 49.8 µM | – | 38.4 µM | – | 66.7 µM | – | 96.8 µM | –
17 | CCOc1cc2ncc(C#N)c(Nc3ccc(OCc4cccc(F)c4)c(Cl)c3)c2cc1NC(=O)CC1CCSS1 (centres undefined) | > 25 µM | > 25 µM | 0.542 µM | 1.16 µM | 0.596 µM | 1.52 µM | 4.12 µM | > 25 µM | 0.465 µM | 0.948 µM | 0.74 µM | > 14.3 µM | 1.02 µM | > 25 µM | 0.727 µM | 3.02 µM | 0.49 µM | 1.12 µM | 11 µM | > 25 µM
